How the values were obtained:
[1] = system: sulfate reducing bacteria; experiment: Sulfate reducing bacteria viability (SRB/ml) after treatment; assay type: cell-based
Method: The test protocol was as follows: 100 mL serum bottles were filled with synthetic nutrient medium, then stoppered, capped, and autoclaved, and allowed to cool to at least 35° C. Using a 1 mL syringe with needle, the treatment was added at desired dosages to prepared serum bottles (triplicates of each dosage). No treatment was added for baseline controls. Nine baseline serum bottles were used.
Next, a 10^10 cells/ml concentration of the sulfate reducers was prepared (using autoclaved synthetic nutrient medium) inside an anaerobic chamber. Using a 1 ml syringe with needle, 0.1 ml of the prepared sulfate reducers culture was added to each serum bottle. The bottles were then incubated at the desired temperature for 48 hours.

[2] = system: sulfate reducing bacteria; experiment: Inhibition of hydrogen sulfide generation by sulfate reducers in serum bottles; assay type: cell-based; conditions: 48 hours incubation; for Sulfide Formation Level Sample A: replicate bottle A; for Sulfide Formation Level Sample B: replicate bottle B; for Sulfide Formation Level Sample C: replicate bottle C
Method: The test protocol was as follows: 100 mL serum bottles were filled with synthetic nutrient medium, then stoppered, capped, and autoclaved, and allowed to cool to at least 35° C. Using a 1 mL syringe with needle, the treatment was added at desired dosages to prepared serum bottles (triplicates of each dosage). No treatment was added for baseline controls. Nine baseline serum bottles were used. Next, a 10^10 cells/ml concentration of the sulfate reducers was prepared (using autoclaved synthetic nutrient medium) inside an anaerobic chamber. Using a 1 ml syringe with needle, 0.1 ml of the prepared sulfate reducers culture was added to each serum bottle. The bottles were then incubated at the desired temperature for 48 hours. The baseline dissolved sulfide levels were then measured to determine if the samples were ready for efficacy analysis. Using a 30 mL syringe with needle, 30 mL of sample was removed from each serum bottle. About 25 mL of the sample was added to a 30 mL bottle containing 0.125 mL zinc acetate solution, followed by adding 1 mL of 1N NaOH. The sulfide in the fixed sample was then measured. If the control sample sulfide levels were >10 ppm, then the whole series of test vials was evaluated for generated sulfide. The remaining 5 mL of sample in the syringe was used for a final pH determination.

SMILES: NCCO [monoethanolamine]
- SRB/ml ([1]; inhibitor dose conc. 25 ppm): 100,000 SRB/ml
- SRB/ml ([1]; inhibitor dose conc. 50 ppm): 100,000 SRB/ml
- SRB/ml ([1]; inhibitor dose conc. 100 ppm): 100,000 SRB/ml
- Sulfide Formation Level Sample A ([2]; inhibitor dose conc. 25 ppm): 1+ (1+ = 0.1-1.0 ppm Sulfide)
- Sulfide Formation Level Sample B ([2]; inhibitor dose conc. 25 ppm): 1+ (1+ = 0.1-1.0 ppm Sulfide)
- Sulfide Formation Level Sample C ([2]; inhibitor dose conc. 25 ppm): 1+ (1+ = 0.1-1.0 ppm Sulfide)
- Sulfide Formation Level Sample A ([2]; inhibitor dose conc. 50 ppm): 1+ (1+ = 0.1-1.0 ppm Sulfide)
- Sulfide Formation Level Sample B ([2]; inhibitor dose conc. 50 ppm): 1+ (1+ = 0.1-1.0 ppm Sulfide)
- Sulfide Formation Level Sample C ([2]; inhibitor dose conc. 50 ppm): 0 (0 = <0.1 ppm Sulfide)
- Sulfide Formation Level Sample A ([2]; inhibitor dose conc. 100 ppm): 0 (0 = <0.1 ppm Sulfide)
- Sulfide Formation Level Sample B ([2]; inhibitor dose conc. 100 ppm): 0 (0 = <0.1 ppm Sulfide)
- Sulfide Formation Level Sample C ([2]; inhibitor dose conc. 100 ppm): 0 (0 = <0.1 ppm Sulfide)

SMILES: CC[C@@]1([C@@H]2O[C@@H]([C@H]3O[C@@](O)(CO)[C@H](C)C[C@@H]3C)C[C@@H]2C)CC[C@H]([C@]2(C)CC[C@]3(C[C@H](O)[C@@H](C)[C@@H]([C@@H](C)[C@@H](OC)[C@H](C)C(=O)O)O3)O2)O1 [monensin, reference compound]
- SRB/ml ([1]; inhibitor dose conc. 25 ppm): 1,000,000 SRB/ml
- SRB/ml ([1]; inhibitor dose conc. 50 ppm): 100,000 SRB/ml
- SRB/ml ([1]; inhibitor dose conc. 100 ppm): 10,000 SRB/ml
- Sulfide Formation Level Sample A ([2]; inhibitor dose conc. 25 ppm): 1+ (1+ = 0.1-1.0 ppm Sulfide)
- Sulfide Formation Level Sample B ([2]; inhibitor dose conc. 25 ppm): 1+ (1+ = 0.1-1.0 ppm Sulfide)
- Sulfide Formation Level Sample C ([2]; inhibitor dose conc. 25 ppm): 0 (0 = <0.1 ppm Sulfide)
- Sulfide Formation Level Sample A ([2]; inhibitor dose conc. 50 ppm): 0 (0 = <0.1 ppm Sulfide)
- Sulfide Formation Level Sample B ([2]; inhibitor dose conc. 50 ppm): 0 (0 = <0.1 ppm Sulfide)
- Sulfide Formation Level Sample C ([2]; inhibitor dose conc. 50 ppm): 0 (0 = <0.1 ppm Sulfide)
- Sulfide Formation Level Sample A ([2]; inhibitor dose conc. 100 ppm): 0 (0 = <0.1 ppm Sulfide)
- Sulfide Formation Level Sample B ([2]; inhibitor dose conc. 100 ppm): 0 (0 = <0.1 ppm Sulfide)
- Sulfide Formation Level Sample C ([2]; inhibitor dose conc. 100 ppm): 0 (0 = <0.1 ppm Sulfide)

SMILES: Sc1nc2ccccc2s1 [2-mercaptobenzothiazole]
- SRB/ml ([1]; inhibitor dose conc. 25 ppm): 10,000 SRB/ml
- SRB/ml ([1]; inhibitor dose conc. 50 ppm): 100,000 SRB/ml
- SRB/ml ([1]; inhibitor dose conc. 100 ppm): 10,000 SRB/ml
- Sulfide Formation Level Sample A ([2]; inhibitor dose conc. 25 ppm): 0 (0 = <0.1 ppm Sulfide)
- Sulfide Formation Level Sample B ([2]; inhibitor dose conc. 25 ppm): 0 (0 = <0.1 ppm Sulfide)
- Sulfide Formation Level Sample C ([2]; inhibitor dose conc. 25 ppm): 0 (0 = <0.1 ppm Sulfide)
- Sulfide Formation Level Sample A ([2]; inhibitor dose conc. 50 ppm): 0 (0 = <0.1 ppm Sulfide)
- Sulfide Formation Level Sample B ([2]; inhibitor dose conc. 50 ppm): 0 (0 = <0.1 ppm Sulfide)
- Sulfide Formation Level Sample C ([2]; inhibitor dose conc. 50 ppm): 0 (0 = <0.1 ppm Sulfide)
- Sulfide Formation Level Sample A ([2]; inhibitor dose conc. 100 ppm): 0 (0 = <0.1 ppm Sulfide)
- Sulfide Formation Level Sample B ([2]; inhibitor dose conc. 100 ppm): 0 (0 = <0.1 ppm Sulfide)
- Sulfide Formation Level Sample C ([2]; inhibitor dose conc. 100 ppm): 0 (0 = <0.1 ppm Sulfide)

Source: patent US20060073112A1, “Method of preventing hydrogen sulfide odor generation in an aqueous medium” (priority 2004, published 2006)
